Measurements: patent publication US10919941B2, “Functional lipid constructs” (KODE BIOTECH LIMITED, priority 2007, dated 2021)
No end group written: not given here.

Tests used:
[1] = system: TAP1 serum (Taiwan Miltenberger antibody positive sample); assay: Anti-MUT serum (TAP1) reactivity of modified RBCs (saline and AHG); format: cell-based, human; parameters: key: 0 or ‘−’ no agglutination; 0 or ‘−’ no agglutination; 1+ or 3=very weak agglutination; 1+ or 3=very weak agglutination; 2+ or 5=weak agglutination; 2+ or 5=weak agglutination; 3+ or 8=moderate strong agglutination; 3+ or 8=moderate strong agglutination; 4+ or 10/12=strong agglutination; 4+ or 10/12=strong agglutination; 4+ or 10/12=strong agglutination; conditions: construct 50 μg/ml
Method: (§1) The suspensions are either: • 1. incubated for 2 hours at 37° C. before being washed and suspended in a cell medium for serological analysis at a concentration of 0.8 to 3% (Method 1); or • 2. incubated for 3 to 4 hours at room temperature (circa 25° C.) followed by 18 hours at 4° C. before being washed and suspended in a cell medium for serological analysis at a concentration of 0.8 to 3% (Method 2).
(§2) Serological reactions are graded or scored by either of two established systems (0 or ‘−’ no agglutination, 1+ or 3=very weak agglutination, 2+ or 5=weak agglutination, 3+ or 8=moderate strong agglutination, 4+ or 10/12=strong agglutination)

[2] = system: natural Mi III antibody reactive human serums; assay: Positive serum reactivity of modified RBCs in the field; format: cell-based; parameters: key: 0 or ‘−’ no agglutination; 0 or ‘−’ no agglutination; 1+ or 3=very weak agglutination; 1+ or 3=very weak agglutination; 2+ or 5=weak agglutination; 2+ or 5=weak agglutination; 3+ or 8=moderate strong agglutination; 3+ or 8=moderate strong agglutination; 4+ or 10/12=strong agglutination; 4+ or 10/12=strong agglutination; 4+ or 10/12=strong agglutination; conditions: 22 at 50, 17 and 24 at 200 μg/ml; 3 h RT then 18 h 4° C.
Method: as §1, §2

[3] = system: sera reactive with modified RBCs; assay: Neutralisation of reactive sera with free peptide, retested against modified RBCs (BioVue); format: cell-based, human; parameters: key: 0 or ‘−’ no agglutination; 0 or ‘−’ no agglutination; 1+ or 3=very weak agglutination; 1+ or 3=very weak agglutination; 2+ or 5=weak agglutination; 2+ or 5=weak agglutination; 3+ or 8=moderate strong agglutination; 3+ or 8=moderate strong agglutination; 4+ or 10/12=strong agglutination; 4+ or 10/12=strong agglutination; 4+ or 10/12=strong agglutination; conditions: cells modified with the peptide-lipid construct M28; AHG test in BioVue
From the text: Optionally, where F is a peptide, the method includes the preliminary step of: • Adding an amount of the peptide to the sample of the serum; where the amount of the peptide is sufficient to neutralize non-specific agglutination or confirm specificity of the reactive antibody.

antibody negative serums = assay: False positive reactions of modified RBCs with antibody negative serums/plasma; format: cell-based, human; parameters: key to Reaction score BioVue AHG, PAC samples 1-46, 49, 50, 52, 53 / Reaction score BioVue AHG, PAC sample 47 / Reaction score BioVue AHG, PAC sample 48 / Reaction score BioVue AHG, PAC sample 51 / agglutination score, T series serum 2 / agglutination score, T series serum 42 / agglutination score, T series serum 63 / agglutination score, T series serum 62 / agglutination score, T series serum 7 / agglutination score, T series serum 20 / agglutination score, T series serum 48 / agglutination score, T series serum 22 / agglutination score, T series serum 39 / agglutination score, T series serum 23 / agglutination score, T series serum 30 / agglutination score, T series serum 4 / agglutination score, T series serum 31 / agglutination score, T series serum 44 / agglutination score, T series serum 61 / agglutination score, T series serum 18 / agglutination score, T series serum 21 / agglutination score, T series serum 28 / agglutination score, T series serum 55 / agglutination score, false positive serum T18 / agglutination score, false positive serum T21 / agglutination score, false positive serum T28 / agglutination score, false positive serum T55 / agglutination score, false positive serum T78 / agglutination score, false positive serum T92: 0 or ‘−’ no agglutination; 0 or ‘−’ no agglutination; 1+ or 3=very weak agglutination; 1+ or 3=very weak agglutination; 2+ or 5=weak agglutination; 2+ or 5=weak agglutination; 3+ or 8=moderate strong agglutination; 3+ or 8=moderate strong agglutination; 4+ or 10/12=strong agglutination; 4+ or 10/12=strong agglutination; 4+ or 10/12=strong agglutination; conditions: BioVue AHG cards
[4] = system: Miltenberger antibody positive sera; assay: BioVue AHG card column agglutination serology of modified red blood cells; format: cell-based, human; parameters: key: 0 or ‘−’ no agglutination; 0 or ‘−’ no agglutination; 1+ or 3=very weak agglutination; 1+ or 3=very weak agglutination; 2+ or 5=weak agglutination; 2+ or 5=weak agglutination; 3+ or 8=moderate strong agglutination; 3+ or 8=moderate strong agglutination; 4+ or 10/12=strong agglutination; 4+ or 10/12=strong agglutination; 4+ or 10/12=strong agglutination; conditions: construct 100 μg/ml
Method: (§3) Red blood cells are modified by mixing 1 part by volume of washed packed red blood cells with 1 part by volume of peptide-lipid construct dispersed at a concentration of 10 to 1000 pg/ml in cell media (Celpresol™).
as §1, §2
(§4) Serological platforms used are Tube (addition of reagents and reactants into plastic or glass serology tubes and after appropriate incubations, washing and centrifugation observing reactions macroscopically by eye and a 10× magnification eyepiece and scoring) and BioVue™ (addition of reactants into cassettes containing beads (including some reactants) and after appropriate incubations and centrifugation observing the reaction patterns trapped within the Gel matrix). BioVue is the serological column agglutination platform of Ortho-Clinical Diagnostics. Diamed is the serological column agglutination platform of Diamed AG.

[5] = system: Miltenberger Antibody Positive Panel; assay: Reactivity of modified RBCs against the Miltenberger Antibody Positive Panel; format: cell-based, human; parameters: key to score vs panel 15 TAP2 / score vs panel 4 T7202 / score vs panel 8 T5896 / score vs panel 2 T217 / score vs panel 3 T165 / score vs panel 14 TAP1 / score vs panel 10 Mia / score vs panel 11 Mur / score vs panel 12 Gam / score vs panel 6 T6025 / score vs panel 7 T8445 / score vs panel 9 MIII / score vs panel 13 BoxH / reactivity with Panel Serum #7 (T8445) / agglutination score, Panel Serum #7 (T8445): 0 or ‘−’ no agglutination; 0 or ‘−’ no agglutination; 1+ or 3=very weak agglutination; 1+ or 3=very weak agglutination; 2+ or 5=weak agglutination; 2+ or 5=weak agglutination; 3+ or 8=moderate strong agglutination; 3+ or 8=moderate strong agglutination; 4+ or 10/12=strong agglutination; 4+ or 10/12=strong agglutination; 4+ or 10/12=strong agglutination
Method: as §3, §1, §2, §4

[6] = cells modified at 50 μg/ml, 2 hour 37° C.

M24: DOPE peptide-lipid construct: Hil peptide EETGETGQLV, leader c, spacer CMG(2) (EETGETGQLVC; also: DOPE peptide-lipid construct via leader Cys, spacer CMG(2))
3: score vs Mi III reactive serum 942423002-4 [2] | score vs Mi III reactive serum 942762589-1 [2] | score vs Mi III reactive serum 9328154853 [2]
5: score vs Mi III reactive serum 942448627-8 [2] | score vs Mi III reactive serum 9328118428 [2] | score vs Mi III reactive serum 9424292604 [2] | score vs Mi III reactive serum 9427455417 [2] | score vs Mi III reactive serum S-3 [2]
0: TAP 1 Serum, AHG score [1] | TAP 1 Serum, Saline score [1] | score vs Mi III reactive serum 912485657-9 [2] | score vs Mi III reactive serum 914146821-8 [2] | score vs Mi III reactive serum 922390844-5 [2] | score vs Mi III reactive serum 926190919-0 [2] | score vs Mi III reactive serum 926555294-1 [2] | score vs Mi III reactive serum 927175131-4 [2] | score vs Mi III reactive serum 927299700-1 [2] | score vs Mi III reactive serum 927516053-2 [2] | score vs Mi III reactive serum 927619701-8 [2] | score vs Mi III reactive serum 932360876-4 [2] | score vs Mi III reactive serum 932467774-5 [2] | score vs Mi III reactive serum 932809044-1 [2] | score vs Mi III reactive serum 942223755-1 [2] | score vs Mi III reactive serum 942404708-4 (row interpreted Mur) [2] | score vs Mi III reactive serum 942404708-4 (row interpreted other) [2] | score vs Mi III reactive serum 942421413-0 [2] | score vs Mi III reactive serum 942433813-3 [2] | score vs Mi III reactive serum 942442720-2 [2] | score vs Mi III reactive serum 9322338631 [2] | score vs Mi III reactive serum 9325490091 [2] | score vs Mi III reactive serum 9327986660 [2] | score vs Mi III reactive serum 9328791834 [2] | score vs Mi III reactive serum 9424248012 [2] | score vs Mi III reactive serum 9424396133 [2] | score vs Mi III reactive serum 9427613497 [2] | score vs Mi III reactive serum 9427615156 [2]
8: score vs Mi III reactive serum 942433855-3 [2] | score vs Mi III reactive serum 942753165-4 [2] | score vs Mi III reactive serum 9425256505 [2]

M28: DOPE peptide-lipid construct: Mur peptide TYPAHTANE, leader c, spacer CMG(2) (TYPAHTANEC; also: DOPE peptide-lipid construct via leader Cys, spacer CMG(2))
0: agglutination score, T series serum 7 (antibody negative serums; [6]) | agglutination score, T series serum 18 (antibody negative serums; [6]) | agglutination score, T series serum 20 (antibody negative serums; [6]) | agglutination score, T series serum 21 (antibody negative serums; [6]) | agglutination score, T series serum 22 (antibody negative serums; [6]) | agglutination score, T series serum 23 (antibody negative serums; [6]) | agglutination score, T series serum 28 (antibody negative serums; [6]) | agglutination score, T series serum 30 (antibody negative serums; [6]) | agglutination score, T series serum 39 (antibody negative serums; [6]) | agglutination score, T series serum 42 (antibody negative serums; [6]) | agglutination score, T series serum 48 (antibody negative serums; [6]) | agglutination score, T series serum 55 (antibody negative serums; [6]) | agglutination score, T series serum 62 (antibody negative serums; [6]) | agglutination score, T series serum 63 (antibody negative serums; [6]) | score vs panel 2 T217 ([5]; Table 9, construct 50 μg/ml) | score vs panel 8 T5896 ([5]; Table 9, construct 50 μg/ml)
5: Pre-neutralisation serology, PAC71 [3] | Pre-neutralisation serology, PAC72 [3]
10: agglutination score, T series serum 2 (antibody negative serums; [6]) | agglutination score, T series serum 44 (antibody negative serums; [6]) | agglutination score, T series serum 61 (antibody negative serums; [6]) | TAP 2 Serum BioVue AHG score [4] | score vs panel 4 T7202 ([5]; Table 9, construct 50 μg/ml)
8: Pre-neutralisation serology, PAC70 [3] | Pre-neutralisation serology, TAP2 [3] | agglutination score, T series serum 4 (antibody negative serums; [6]) | agglutination score, T series serum 31 (antibody negative serums; [6]) | score vs panel 7 T8445 ([5]; Table 9, construct 50 μg/ml) | score vs panel 15 TAP2 ([5]; Table 9, construct 50 μg/ml) | agglutination score, Panel Serum #7 (T8445) ([5]; cells modified at 50 μg/ml, 2 hour 37° C., BioVue AHG cards) | reactivity with Panel Serum #7 (T8445) ([5]; construct 50 μg/ml (2 hours, 37° C.))
9%: % positive (antibody negative serums; T series reactives (n = 58))
